Results as given in PubChem BioAssay AID1963423 (Molecular Pharmacology Branch, DTP, NCI, 2024).

Tested on: 439559-082-T-J2-PDC complex spheroid growth
Assay: Anticancer human tumor 439559-082-T-J2-PDC patient-derived colon adenocarcinoma cell line growth inhibition [Asc]
Details: for IC50: curve of first compound; for viability, T/C: stronger effect = lower value
Description: Multicellular complex tumor spheroid response to apoptosis pathway targeting inhibitors Alrizomadlin, Pelcitoclax, and Dasminapant in combination with a variety of drugs and investigational agents in selected tumor cell lines
The MDM2 inhibitor alrizomadlin, the Bcl-2/Bcl-xL inhibitor pelcitoclax, and the IAPs inhibitor dasminapant were evaluated both individually and in combination with standard of care and investigational anticancer small molecules within a complex spheroid model of solid tumors. . Complex spheroids include a stromal component modeled by human endothelial cells (HUVEC) and fibroblasts modeled by human mesenchymal stem cells (MSCs). The concentration ranges selected for each drug and investigational agent were based upon clinically achievable concentrations if the clinical Cmax of the agent was known.
Compounds. The drugs and investigational agents: alrizomadlin (APG-115; NSC831270), pelcitoclax (APG-1252; NSC835773), dasminapant (APG-1387;NSC834197), TAK-243 (NSC785004), copanlisib (NSC809693), olaparib (NSC753686), talazoparib (NSC767125), cobimetinib (NSC 768068), eltanexor (KPT-8602, NSC 794443), abemaciclib (NSC 768073), sotorasib (NSC818433), adagrasib (NSC 831453), MRTX-1133 (NSC 836407), Iadademestat (ORY1001, NSC 806812), and RMC-4630 (NSC839698), were obtained from the NCI Developmental Therapeutics Program Chemical Repository. The FDA-approved anticancer drug set is available from the Developmental Therapeutics Program at https://dtp.cancer.gov/organization/dscb/obtaining/available plates.htm. […] The stock solutions were prepared in dimethyl sulfoxide (DMSO, Sigma-Aldrich, St. Louis, MO, cat. D2650) at 800-fold the tested concentration and stored at -70 degrees C prior to their use. All drugs and investigational agents were tested over a range starting from a high concentration at or near the clinical Cmax and decreasing in half-log increments. If the clinical Cmax for an agent had not been determined, the highest concentration tested was 10 microM.
The patient-derived cancer (PDC) cell lines include five colon adenocarcinomas: 186277-243-T-J2-PDC, 616215-338-R-J1-PDC, 439559-082-T-J2-PDC, 463943-066-T-J2-PDC, and 519858-162-T-J1-PDC; three pancreatic carcinomas: 323965-272-R-J2-PDC, 521955-158-R6-J3-PDC, and 521955-158-R2-J5-PDC; two uterine sarcomas: 327498-152-R-J2-PDC and 993429-296-R-J1-PDC; two rhabdomyosarcomas: 755483-174-R-J1-PDC and 772245-204-R-J1-PDC; two soft tissue sarcomas: 126254-015-R-J1-PDC and 494315-158-R-J1-PDC; two malignant fibrous histiocytomas: 317291-083-R-J1-PDC and 596521-263-R-J1-PDC; two breast carcinomas: 171881-019-R-J1-PDC and 885512-296-R-J2-PDC; and one ovarian carcinoma: 6556581-035-R-J-PDC were obtained from the NCI PDMR, (https://pdmr.cancer.gov). The established cell lines HSSY-2 synovial sarcoma (RRID:CVCL 8719), SYO-1 synovial sarcoma (RRID:CVCL_7146), MPNST malignant peripheral neural sheath tumor were obtained from the Sloan Kettering Institute. The following established cell lines were purchased from the American Type Culture Collection (ATCC, Manassas, VA), Sor the received from the NCI repository:, PANC-1 pancreatic carcinoma (CRL-1469, RRID:CVCL_0480), OVCAR-5 ovarian carcinoma (RRID:CVCL_1628), OVCAR-8 ovarian carcinoma (RRID:CVCL_1629), , MCF-7 breast carcinoma (CRL-12584, RRID:CVCL_0031), MDA-MB-231 breast carcinoma (CRL-12532, RRID:CVCL_0062), NCI-H1876 small cell lung carcinoma (CRL-5902, RRID:CVCL_1503), NCI-H510A small cell lung carcinoma (HTB-184, RRID:CVCL_1565), NCI-H1417 (CRL-5869, RRID:CVCL_1469), and NCI-H196 small cell lung carcinoma (CRL-5823, RRID:CVCL_1509). Dr. Peter Houghton (Greehey Children's Cancer Research Institute, University of Texas Health Science Center, San Antonio, TX) provided Rh-18 rhabdomyosarcoma (RRID:CVCL_1659). Pooled donor human umbilical vein endothelial cells (HUVEC, Lonza, cat. CC-2519) and human mesenchymal stem cells (hMSC, Lonza, cat. PT-2501) were purchased from Lonza (Walkersville, MD).
Cell Culture. […]

[1] = second compound 0.03 µM, first compound 0.0316 µM
[2] = second compound 0.03 µM, first compound 0.1 µM
[3] = second compound 0.0949 µM, first compound 0.0316 µM
[4] = second compound 0.0949 µM, first compound 0.1 µM
[5] = second compound 0.3 µM, first compound 0.0316 µM
[6] = second compound 0.3 µM, first compound 0.1 µM
[7] = second compound 0.949 µM, first compound 0.0316 µM
[8] = second compound 0.949 µM, first compound 0.1 µM
[9] = second compound 3 µM, first compound 0.0316 µM
[10] = second compound 3 µM, first compound 0.1 µM
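Note: spheroids exposed to agents for 7 days starting day 3 after seeding.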
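Throughout, for viability, T/C: percent of DMSO vehicle control viability with 100% = vehicle.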

In the case of Cn1ncnc1[C@H]1c2n[nH]c(=O)c3cc(F)cc(c23)N[C@@H]1c1ccc(F)cc1 + CCN1C(C(=O)NC23CCC(C(=O)O)(CC2)CC3)C(c2cccc(Cl)c2F)C2(C(=O)Nc3cc(Cl)ccc32)C12CCCCC2, the IC50 (second compound 0.03 µM) is reported as > 0.1 µM, the IC50 (second compound 0.0949 µM) is reported as > 0.1 µM and the IC50 (second compound 0.3 µM) is reported as > 0.1 µM. For the same compound, the IC50 (second compound 0.949 µM) was > 0.1 µM, the IC50 (second compound 3 µM) was > 0.1 µM and the viability, T/C (second compound 0.03 µM, first compound 0.000316 µM) was 106%. It also gave a viability, T/C (second compound 0.03 µM, first compound 0.001 µM) of 109%, a viability, T/C (second compound 0.03 µM, first compound 0.00316 µM) of 103% and a viability, T/C (second compound 0.03 µM, first compound 0.01 µM) of 100%. The viability, T/C [1] was 101%, the viability, T/C [2] was 95.3% and the viability, T/C (second compound 0.0949 µM, first compound 0.000316 µM) was 103%. It also gave a viability, T/C (second compound 0.0949 µM, first compound 0.001 µM) of 104%, a viability, T/C (second compound 0.0949 µM, first compound 0.00316 µM) of 106% and a viability, T/C (second compound 0.0949 µM, first compound 0.01 µM) of 83.4%. The viability, T/C [3] was 94.6%, the viability, T/C [4] was 96.6% and the viability, T/C (second compound 0.3 µM, first compound 0.000316 µM) was 98.8%. For the same compound, the viability, T/C (second compound 0.3 µM, first compound 0.001 µM) was 113%, the viability, T/C (second compound 0.3 µM, first compound 0.00316 µM) was 109% and the viability, T/C (second compound 0.3 µM, first compound 0.01 µM) was 86.2%. For the same compound, the viability, T/C [5] was 96.2%, the viability, T/C [6] was 101% and the viability, T/C (second compound 0.949 µM, first compound 0.000316 µM) was 107%. It also gave a viability, T/C (second compound 0.949 µM, first compound 0.001 µM) of 111%, a viability, T/C (second compound 0.949 µM, first compound 0.00316 µM) of 108% and a viability, T/C (second compound 0.949 µM, first compound 0.01 µM) of 99%. It also gave a viability, T/C [7] of 88.3%, a viability, T/C [8] of 103% and a viability, T/C (second compound 3 µM, first compound 0.000316 µM) of 89%. The viability, T/C (second compound 3 µM, first compound 0.001 µM) was 94.7%, the viability, T/C (second compound 3 µM, first compound 0.00316 µM) was 101% and the viability, T/C (second compound 3 µM, first compound 0.01 µM) was 86.6%. It also gave a viability, T/C [9] of 84.4% and a viability, T/C [10] of 91.6%.
O=C(c1cc(Cc2n[nH]c(=O)c3ccccc23)ccc1F)N1CCN(C(=O)C2CC2)CC1 + CCN1C(C(=O)NC23CCC(C(=O)O)(CC2)CC3)C(c2cccc(Cl)c2F)C2(C(=O)Nc3cc(Cl)ccc32)C12CCCCC2 was tested, and the IC50 (second compound 0.03 µM) was > 10 µM, the IC50 (second compound 0.0949 µM) was > 10 µM and the IC50 (second compound 0.3 µM) was > 10 µM. For the same compound, the IC50 (second compound 0.949 µM) was > 10 µM, the IC50 (second compound 3 µM) was > 10 µM and the viability, T/C [1] was 106%. The viability, T/C [2] was 103%, the viability, T/C (second compound 0.03 µM, first compound 0.316 µM) was 105% and the viability, T/C (second compound 0.03 µM, first compound 1 µM) was 87.5%. It also gave a viability, T/C (second compound 0.03 µM, first compound 3.16 µM) of 97.1%, a viability, T/C (second compound 0.03 µM, first compound 10 µM) of 87.8% and a viability, T/C [3] of 104%. The viability, T/C [4] was 113%, the viability, T/C (second compound 0.0949 µM, first compound 0.316 µM) was 104% and the viability, T/C (second compound 0.0949 µM, first compound 1 µM) was 96.5%. It also gave a viability, T/C (second compound 0.0949 µM, first compound 3.16 µM) of 93.4%, a viability, T/C (second compound 0.0949 µM, first compound 10 µM) of 100% and a viability, T/C [5] of 99.5%. It also gave a viability, T/C [6] of 112%, a viability, T/C (second compound 0.3 µM, first compound 0.316 µM) of 111% and a viability, T/C (second compound 0.3 µM, first compound 1 µM) of 85%. It also gave a viability, T/C (second compound 0.3 µM, first compound 3.16 µM) of 91%, a viability, T/C (second compound 0.3 µM, first compound 10 µM) of 94.9% and a viability, T/C [7] of 109%. For the same compound, the viability, T/C [8] was 107%, the viability, T/C (second compound 0.949 µM, first compound 0.316 µM) was 113% and the viability, T/C (second compound 0.949 µM, first compound 1 µM) was 89.6%. For the same compound, the viability, T/C (second compound 0.949 µM, first compound 3.16 µM) was 90.4%, the viability, T/C (second compound 0.949 µM, first compound 10 µM) was 94.9% and the viability, T/C [9] was 90.5%. The viability, T/C [10] was 100%, the viability, T/C (second compound 3 µM, first compound 0.316 µM) was 104% and the viability, T/C (second compound 3 µM, first compound 1 µM) was 86.7%. The viability, T/C (second compound 3 µM, first compound 3.16 µM) was 88.6% and the viability, T/C (second compound 3 µM, first compound 10 µM) was 88.8%.
